Laboratory results as given in PubChem BioAssay (NCI).
Counter-ions that a name gives are not always drawn.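 Compound exposure: 48 hours, 5 concentrations, 96-well plates. Definition used: TGI = concentration required for complete inhibition of growth.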 Where a SMILES comes first, the peptide text is derived from it. The star is where a group is joined. Tfa = O=C(C(F)(F)F)*

Tests used:
Experiment in all cases: inhibition of tumour cell growth, NCI panel, 48 h
COLO 205 colon = test system: COLO 205 colon
SW-620 colon = test system: SW-620 colon
SK-MEL-5 melanoma = test system: SK-MEL-5 melanoma
MALME-3M melanoma = test system: MALME-3M melanoma
PC-3 prostate = test system: PC-3 prostate
HCC-2998 colon = test system: HCC-2998 colon
RPMI-8226 leukemia = test system: RPMI-8226 leukemia
NCI-H23 lung = test system: NCI-H23 lung
HCT-116 colon = test system: HCT-116 colon
NCI-H522 lung = test system: NCI-H522 lung
HS 578T breast = test system: HS 578T breast
UACC-62 melanoma = test system: UACC-62 melanoma
SNB-75 CNS = test system: SNB-75 CNS
MOLT-4 leukemia = test system: MOLT-4 leukemia
HT29 colon = test system: HT29 colon
SF-295 CNS = test system: SF-295 CNS
M14 melanoma = test system: M14 melanoma
HL-60(TB) leukemia = test system: HL-60(TB) leukemia
UO-31 renal = test system: UO-31 renal
MDA-N = test system: MDA-N
IGROV1 ovarian = test system: IGROV1 ovarian
SF-268 CNS = test system: SF-268 CNS
CCRF-CEM leukemia = test system: CCRF-CEM leukemia
CAKI-1 renal = test system: CAKI-1 renal
OVCAR-3 ovarian = test system: OVCAR-3 ovarian
NCI/ADR-RES ovarian = test system: NCI/ADR-RES ovarian
NCI-H460 lung = test system: NCI-H460 lung
T-47D breast = test system: T-47D breast
NCI-H226 lung = test system: NCI-H226 lung
MDA-MB-231 breast = test system: MDA-MB-231 breast
MCF7 breast = test system: MCF7 breast
786-0 renal = test system: 786-0 renal
TK-10 renal = test system: TK-10 renal
SK-OV-3 ovarian = test system: SK-OV-3 ovarian
SNB-19 CNS = test system: SNB-19 CNS
HOP-62 NSCLC = test system: HOP-62 NSCLC
SR leukemia = test system: SR leukemia
DU-145 prostate = test system: DU-145 prostate
ACHN renal = test system: ACHN renal
RXF 393 renal = test system: RXF 393 renal
LOX IMVI melanoma = test system: LOX IMVI melanoma
A549 NSCLC = test system: A549 NSCLC
HCT-15 colon = test system: HCT-15 colon
A498 renal = test system: A498 renal
HOP-92 NSCLC = test system: HOP-92 NSCLC
K-562 leukemia = test system: K-562 leukemia
SK-MEL-28 melanoma = test system: SK-MEL-28 melanoma
OVCAR-8 ovarian = test system: OVCAR-8 ovarian
U251 CNS = test system: U251 CNS
OVCAR-4 ovarian = test system: OVCAR-4 ovarian
EKVX NSCLC = test system: EKVX NSCLC
KM12 colon = test system: KM12 colon
OVCAR-5 ovarian = test system: OVCAR-5 ovarian
SN12C renal = test system: SN12C renal
BT-549 breast = test system: BT-549 breast
MDA-MB-435 = test system: MDA-MB-435
UACC-257 melanoma = test system: UACC-257 melanoma
SK-MEL-2 melanoma = test system: SK-MEL-2 melanoma
SF-539 CNS = test system: SF-539 CNS

Measured: TGI

CN(C)C(Cc1cnc[nH]1)C(=O)N1CCCC1C(N)=O (stereo not given)
98 µM: A498 renal
not listed: UACC-257 melanoma | SK-MEL-2 melanoma | SF-539 CNS
> 100 µM: all other assays above

O=C(O)CC(NC(=O)C(F)(F)F)C(=O)NC(Cc1ccc(O)cc1)C(=O)O (stereo not drawn) (Tfa-Asp-Tyr-OH; configuration not given here)
not listed: HCT-116 colon | HL-60(TB) leukemia | CCRF-CEM leukemia | LOX IMVI melanoma | A498 renal | OVCAR-4 ovarian
> 50 µM: all other assays above

COc1cc2c(/C=C3/C(=O)N(C)c4ccccc43)c(Cl)[nH]c2cc1C
3.56 µM: HOP-62 NSCLC
> 26.8 µM: CCRF-CEM leukemia
46.2 µM: SNB-75 CNS
3.64 µM: BT-549 breast
14.2 µM: SNB-19 CNS
2.7 µM: IGROV1 ovarian
13 µM: PC-3 prostate
> 52.3 µM: UACC-62 melanoma
1.57 µM: U251 CNS
11.5 µM: M14 melanoma
7.99 µM: SN12C renal
0.666 µM: HL-60(TB) leukemia
> 50.1 µM: HOP-92 NSCLC
> 50.6 µM: A498 renal
16.5 µM: 786-0 renal
11.4 µM: LOX IMVI melanoma
7.79 µM: RPMI-8226 leukemia
3.44 µM: SF-295 CNS | DU-145 prostate
> 57.2 µM: OVCAR-5 ovarian
7.02 µM: HCT-116 colon
> 55.9 µM: ACHN renal
> 23.5 µM: MCF7 breast
2.67 µM: NCI/ADR-RES ovarian
70.5 µM: RXF 393 renal
1.55 µM: NCI-H23 lung
3.09 µM: SF-268 CNS
3.77 µM: OVCAR-8 ovarian
3.68 µM: MDA-MB-231 breast
5.31 µM: SK-MEL-2 melanoma
0.518 µM: NCI-H522 lung
0.038 µM: MDA-MB-435
0.0807 µM: SF-539 CNS
> 100 µM: SW-620 colon | HS 578T breast | T-47D breast | NCI-H226 lung | SK-MEL-28 melanoma
> 47.2 µM: EKVX NSCLC
> 58.3 µM: UO-31 renal
10.2 µM: SR leukemia
> 52.8 µM: CAKI-1 renal
17 µM: A549 NSCLC
4.14 µM: OVCAR-4 ovarian
0.629 µM: SK-OV-3 ovarian
0.929 µM: OVCAR-3 ovarian
97.6 µM: UACC-257 melanoma
7.41 µM: SK-MEL-5 melanoma
6.34 µM: HCT-15 colon
0.153 µM: MDA-N
1.36 µM: NCI-H460 lung
0.317 µM: HCC-2998 colon
5.16 µM: TK-10 renal
0.579 µM: COLO 205 colon
11.8 µM: MOLT-4 leukemia

NC(=O)c1nnc2ccc(F)cc2c1N
73.5 µM: NCI-H226 lung
not listed: RXF 393 renal | HOP-92 NSCLC | SK-MEL-28 melanoma
> 100 µM: all other assays above
